Measured values: patent US11447504B2, “Macrocyclic chlorine substituted indole derivatives” (Bayer Aktiengesellschaft, priority 2017, dated 2022)
Counter-ions that a name gives are not always drawn. Like-named read-outs stand apart in the source and are kept apart here.

Assays:
[1] = test system: SUDHL5; test: Induction of caspase-3/7 activity (Assay 4), SUDHL5; type: cell-based; settings: SUDHL5 cells
In short: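 DLBCL cells treated with compounds for 3 hours at 37° C. Caspase-3/7 activity measured by Caspase-Glo 3/7 luminescence, with medium-only background subtracted.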

[2] = test system: SUDHL10; test: Induction of caspase-3/7 activity (Assay 4), SUDHL10; type: cell-based; settings: SUDHL10 cells
In short: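 Luminescent Caspase-Glo 3/7 read-out after a 3 h, 37 °C compound exposure of the DLBCL line SUDHL10. Values are background-corrected using medium-only wells.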

[3] = molecular target: full length endogenous MCL1 protein (Homo sapiens (Human), UniProt Q07820); test: PIxEL: protein-protein interaction in permeabilized cells by ELISA (Assay 5); type: cell-based; settings: permeabilized RKO cells, biotin-BIM BH3 peptide, read-out: PIxEL IC50 (median)
Protocol: PIxEL: Protein-Protein Interaction in Permeabilized Cells by ELISA
Most MCL1 protein molecules are localized at the mitochondria outer membrane and sequester pro-apoptotic proteins through binding of their BCL2 homology domain 3 (BH3 domain). MEB buffer (150 mM mannitol, 10 mM HEPES pH 7.5, 50 mM KCl, 20 μM EDTA, 20 μM EGTA, 5 mM potassium succinate, 0.1% protease-free BSA (SIGMA) with low dose digitonin (0.002%) permeabilizes plasma membrane while leaves live mitochondria, where MCL1 maintains its native localization and conformation. Unlike biophysical assays (e.g. TR-FRET) that use truncated recombinant MCL1 protein, this assay uses full length endogenous MCL1 protein at mitochondria outer membrane. It measures the interaction between MCL1 protein and biotinylated BIM BH3 peptide. Compounds can compete with BIM BH3 peptide to bind to MCL1 protein. This serum free assay measures the affinity between MCL1 protein and compound in permeabilized cells, therefore it is not affected by serum binding and cell permeability, and can measure the intrinsic compound affinity.
On day 1, RKO colon cancer cell line cells were plated at 0.8 million cells/ml, 100 μl/well in 96-well flat bottom TC plates (Corning). MCL1 antibody (Santa Cruz sc-12756) were diluted at 200 fold (final concentration 1 μg/ml) in carbonate buffer (Thermo Fisher Scientific, pH 9.6), and 50 μl of diluted antibody was added to each well of high bind ELISA plates ([…]). Each plate was tapped to make sure liquid covering entire bottom of wells and incubate at 37° C. overnight.
On the second day, MCL1 antibody was washed from ELISA plate. 250 μl Odyssey® Blocking Buffer (PBS) (Li-Cor) was added to each well, incubated at room temperature for at least 1 hour, then washed once with 250 μl 1×PBST. Plates with RKO cells were gently washed once with 100 μl/well PBS, once with 100 μl/well MEB buffer without digitonin, then 100 μl of MEB buffer with 0.002% digitonin was gently added to each well. Compounds were added with HP Tecan compound dispenser in 3-fold dilution series, highest dose 30 μM, 10-dose per compound in quadruplicates. Biotin-BIM peptide (synthesized by 21st Century) was added with HP Tecan compound dispenser at 0.2 μM immediately after the addition of compounds. Plates were rocked for 1 h at room temperature. Then MEB buffer was aspirated and 50 μl of CHAPS buffer (50 mM Tris-Cl, pH 7.4, 150 mM NaCl, 1% CHAPS, 1 mM EDTA, 1 mM EGTA, complete protease inhibitors (Roche), PhosSTOP (Roche)) was added to each well. […]
On the third day, ELISA plates were washed once with 250 μl 1×PBST. […] Plates were shaken for 1 minute then luminescence was measured by Envision plate reader (HP). […] IC50 was calculated using Graphic Pad PRISM software.

[4] = test system: AMO-1; test: Antiproliferation assay 7, AMO-1; type: cell-based; settings: AMO-1 cells, CellTiter-Glo, read-out: Antiproli AMO-1 IC50 median
In short: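 Proliferation over 72 h at 37° C was assessed by luminescent cell viability reagent, referenced to a day 0 plate.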

[5] = test system: SUDHL5; test: Induction of cytotoxicity (Assay 6), SUDHL5
[6] = test system: SUDHL10; test: Induction of cytotoxicity (Assay 6), SUDHL10
[7] = 3 hours, Caspase-Glo 3/7, read-out: Caspase SUDHL5 EC50 (median)
[8] = 3 hours, Caspase-Glo 3/7, read-out: Caspase SUDHL10 EC50 (median)
[9] = read-out: Cytotox SUDHL5 IC50 (median), SUDHL5 cells, 5 hours, CellTiter-Glo
[10] = read-out: Cytotox SUDHL10 IC50 (median), SUDHL10 cells, 5 hours, CellTiter-Glo

Sequence of full length endogenous MCL1 protein (Q07820 whole entry): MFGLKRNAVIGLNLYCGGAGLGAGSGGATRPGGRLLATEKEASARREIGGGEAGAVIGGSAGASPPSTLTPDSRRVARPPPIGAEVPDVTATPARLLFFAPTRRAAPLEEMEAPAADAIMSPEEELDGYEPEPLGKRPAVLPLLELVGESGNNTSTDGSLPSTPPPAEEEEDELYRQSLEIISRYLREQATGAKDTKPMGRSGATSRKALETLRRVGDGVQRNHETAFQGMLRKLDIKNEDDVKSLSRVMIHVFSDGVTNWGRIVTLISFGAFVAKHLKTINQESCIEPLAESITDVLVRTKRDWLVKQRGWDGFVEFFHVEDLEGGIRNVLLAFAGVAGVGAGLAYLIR

Compound | EC50 [1, 7] | EC50 [2, 8] | IC50 [3] | IC50 ([4]; 72 hours) | IC50 [5, 9] | IC50 [6, 10] | EC50 ([1]; Homo sapiens, SU-DHL-5, 3 h, Caspase-Glo 3/7, read-out: Caspase SUDHL5 EC50 (median)) | EC50 ([2]; Homo sapiens, SU-DHL10, 3 h, Caspase-Glo 3/7, read-out: Caspase SUDHL10 EC50 (median)) | IC50 ([3]; printed in uM) | IC50 ([4]; Homo sapiens, AMO1, 72 h) | IC50 ([5]; Homo sapiens, SU-DHL-5, 5 h, read-out: Cytotox SUDHL5 IC50 (median), SUDHL5 cells, 5 hours, CellTiter-Glo) | IC50 ([6]; Homo sapiens, SU-DHL10, 5 h, read-out: Cytotox SUDHL10 IC50 (median), SUDHL10 cells, 5 hours, CellTiter-Glo)
Cc1c2c(nn1C)N(C)CCCCCn1c(C(=O)O)c(CCCOc3cccc4cc(F)ccc34)c3ccc(Cl)c-2c31 [Example 75, (+)-4-chloro-7-{3-[(6-fluoronaphthalen-1-yl)oxy]propyl}-2,3,15-trimethyl-10,11,12,13,14,15-hexahydro-2H-pyrazolo[4′,3′:4,5][1,6]diazacycloundecino[3,2,1-hi]indole-8-carboxylic acid-N-ethylethanamine salt] | 0.33 µM | 0.74 µM | 0.146 µM | 1.1 µM | 0.38 µM | 0.81 µM | – | – | – | – | – | –
Cc1c2c(nn1C)N(C)CCCCCn1c(C(=O)O)c(CCCOc3cccc4ccccc34)c3ccc(Cl)c-2c31 (racemic) [Example 71, (rac)-4-chloro-2,3,15-trimethyl-7-{3-[(naphthalen-1-yl)oxy]propyl}-10,11,12,13,14,15-hexahydro-2H-pyrazolo[4′,3′:4,5][1,6]diazacycloundecino[3,2,1-hi]indole-8-carboxylic acid] | – | – | – | – | – | – | 0.69 µM | 1.8 µM | > 30 µM | 5 µM | 0.69 µM | 2.7 µM
Cc1c2c(nn1C)N(C)CCCCCn1c(C(=O)O)c(CCCOc3cccc4cc(F)ccc34)c3ccc(Cl)c-2c31 (racemic) [Example 74, (rac)-4-chloro-7-{3-[(6-fluoronaphthalen-1-yl)oxy]propyl}-2,3,15-trimethyl-10,11,12,13,14,15-hexahydro-2H-pyrazolo[4′,3′:4,5][1,6]diazacycloundecino[3,2,1-hi]indole-8-carboxylic acid] | 0.71 µM | 1 µM | 0.214 µM | 1.1 µM | 1 µM | 1.3 µM | – | – | – | – | – | –
CCc1c2c(nn1C)N(C)CCCCCn1c(C(=O)O)c(CCCOc3cccc4cc(F)ccc34)c3ccc(Cl)c-2c31 (single isomer, unassigned; enantiomer 1) [Example 78, 4-chloro-3-ethyl-7-{3-[(6-fluoronaphthalen-1-yl)oxy]propyl}-2,15-dimethyl-10,11,12,13,14,15-hexahydro-2H-pyrazolo[4′,3′:4,5][1,6]diazacycloundecino[3,2,1-hi]indole-8-carboxylic acid-N-ethylethanamine Salt—Enantiomer 1] | 0.4 µM | 0.32 µM | 0.037 µM | 0.77 µM | 0.31 µM | 0.7 µM | – | – | – | – | – | –
